# According to US20220048945A1, “PEPTIDE INHIBITING ACTIVITY OF ARYL HYDROCARBON RECEPTOR AND COSMETIC COMPOSITION USING SAME” (SUPADELIXIR INC., priority 2019, published 2022):
# Columns and labels:
# IL-6 = assay: ELISA, IL-6 production caused by fine dust; type: cell-based, human; conditions: HaCaT cells, fine dust 10 ug/ml plus peptide 20 uM, 24 hours; fine dust only = 100, no treatment = 0
# Protocol: (§1) 2. Specifically, the cultured HaCaT cells were treated with 10 ug/ml of fine dust and 20 uM of the peptide produced in Example 1 (AhR Pep1 to AhR Pep4) respectively, and incubated for 24 hours. Then, IL-6 and TNF-α contents were measured using a […] enzyme-linked immunosorbent assay (ELISA) kit (R&D Systems Inc, Minneapolis, Minn., USA).
# TNF-α = assay: ELISA, TNF-α production caused by fine dust; type: cell-based, human; conditions: HaCaT cells, fine dust 10 ug/ml plus peptide 20 uM, 24 hours; fine dust only = 100, no treatment = 0
# Protocol: as §1
Substance,IL-6 production (%) (IL-6),TNF-α production (%) (TNF-α)
Asn-Thr-Glu (NTE; Peptide 4) [AhR Pep 4],74,82
Asn-Thr-Glu-Leu (NTEL; Peptide 3) [AhR Pep 3],83,89
Asp-Arg-Leu (DRL; Peptide 2) [AhR Pep 2],87,93
Asp-Arg-Leu-Asn (DRLN; Peptide 1) [AhR Pep 1],76,79
